{"source": "patent US6107059A", "about": "“Peptide library and screening method” (Affymax Technologies N.V., priority 1992, dated 2000)", "origin": "cited, not measured here", "target": "streptavidin (Streptomyces avidinii, UniProt P22629)", "sequence (P22629 25-183)": "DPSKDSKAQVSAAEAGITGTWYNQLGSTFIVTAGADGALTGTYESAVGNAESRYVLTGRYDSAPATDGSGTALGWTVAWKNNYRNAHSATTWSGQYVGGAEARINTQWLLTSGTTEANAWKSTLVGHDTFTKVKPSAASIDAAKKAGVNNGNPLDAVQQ", "details": "comparison in words, no number given", "data": [{"smiles": "N=C1N[C@H]2[C@H](CS[C@H]2CCCCC(=O)O)N1", "note": "[iminobiotin]", "values": [{"measurement": "Kd for streptavidin, compared with biotin", "value": "much lower Kd"}]}]}
